Results from patent publication US20260069588A1, “VEPDEGESTRANT FOR USE IN TREATING CANCER” (Arvinas Operation, Inc., priority 2022, published 2026).

Test: Phase 1 single agent studies in Japanese and Chinese participants (C4891016, C4891018): adverse events
[1] = TEAE treatment related, 200 mg, N = 15

Description: TEAE's from participants in both studies have been combined and are described below.

O=C1CC[C@H](N2Cc3cc(N4CCN(CC5CCN(c6ccc([C@@H]7c8ccc(O)cc8CC[C@@H]7c7ccccc7)cc6)CC5)CC4)ccc3C2=O)C(=O)N1 [Compound A, (S)-3-(5-(4-((1-(4-((1R,2S)-6-hydroxy-2-phenyl-1,2,3,4-tetrahydronaphthalen-1-yl)phenyl)piperidin-4-yl)methyl)piperazin-1-yl)-1-oxoisoindolin-2-yl)piperidine-2,6-dione]
Gastrointestinal disorders, Grade 3 [1]: 0 n (%)
Gastrointestinal disorders, Grade 4 [1]: 0 n (%)
Gastrointestinal disorders, Grade 5 [1]: 0 n (%)
Gastrointestinal disorders, Missing or Unknown [1]: 0 n (%)
Gastrointestinal disorders, Total [1]: 4 (26.7) n (%)
General disorders and administration site conditions, Grade 1 [1]: 0 n (%)
General disorders and administration site conditions, Grade 2 [1]: 1 (6.7) n (%)
General disorders and administration site conditions, Grade 3 [1]: 0 n (%)
General disorders and administration site conditions, Grade 4 [1]: 0) n (%)
General disorders and administration site conditions, Grade 5 [1]: 0 n (%)
General disorders and administration site conditions, Missing or Unknown [1]: 0 n (%)
General disorders and administration site conditions, Total [1]: 1 (6.7) n (%)
Headache, Grade 1 [1]: 1 (6.7) n (%)
Headache, Grade 2 [1]: 0 n (%)
Headache, Grade 3 [1]: 0 n (%)
Headache, Grade 4 [1]: 0 n (%)
Headache, Grade 5 [1]: 0 n (%)
Headache, Missing or Unknown [1]: 0 n (%)
Headache, Total [1]: 1 (6.7) n (%)
Hyperuricemia, Grade 1 [1]: 2 (13.3) n (%)
Hyperuricemia, Grade 2 [1]: 0 n (%)
Hyperuricemia, Grade 3 [1]: 0 n (%)
Hyperuricemia, Grade 4 [1]: 0 n (%)
Hyperuricemia, Grade 5 [1]: 0 n (%)
Hyperuricemia, Missing or Unknown [1]: 0 n (%)
Hyperuricemia, Total [1]: 2 (13.3) n (%)
Hypokalemia, Grade 1 [1]: 1 (6.7) n (%)
Hypokalemia, Grade 2 [1]: 0 n (%)
Hypokalemia, Grade 3 [1]: 0 n (%)
Hypokalemia, Grade 4 [1]: 0 n (%)
Hypokalemia, Grade 5 [1]: 0 n (%)
Hypokalemia, Missing or Unknown [1]: 0 n (%)
Hypokalemia, Total [1]: 1 (6.7) n (%)
Hypophosphatasemia, Grade 1 [1]: 1 (6.7) n (%)
Hypophosphatasemia, Grade 2 [1]: 0 n (%)
Hypophosphatasemia, Grade 3 [1]: 0 n (%)
Hypophosphatasemia, Grade 4 [1]: 0 n (%)
Hypophosphatasemia, Grade 5 [1]: 0 n (%)
Hypophosphatasemia, Missing or Unknown [1]: 0 n (%)
Hypophosphatasemia, Total [1]: 1 (6.7) n (%)
Investigations, Grade 1 [1]: 4 (26.7) n (%)
Investigations, Grade 2 [1]: 1 (6.7) n (%)
Investigations, Grade 3 [1]: 2 (13.3) n (%)
Investigations, Grade 4 [1]: 0 n (%)
Investigations, Grade 5 [1]: 0 n (%)
Investigations, Missing or Unknown [1]: 0 n (%)
Investigations, Total [1]: 7 (46.7) n (%)
Metabolism and nutrition disorders, Grade 1 [1]: 3 (20.0) n (%)
Metabolism and nutrition disorders, Grade 2 [1]: 0 n (%)
Metabolism and nutrition disorders, Grade 3 [1]: 0 n (%)
Metabolism and nutrition disorders, Grade 4 [1]: 0 n (%)
Metabolism and nutrition disorders, Grade 5 [1]: 0) n (%)
Metabolism and nutrition disorders, Missing or Unknown [1]: 0 n (%)
Metabolism and nutrition disorders, Total [1]: 3 (20.0) n (%)
Musculoskeletal and connective tissue disorders, Grade 1 [1]: 1 (6.7) n (%)
Musculoskeletal and connective tissue disorders, Grade 2 [1]: 0) n (%)
Musculoskeletal and connective tissue disorders, Grade 3 [1]: 0 n (%)
Musculoskeletal and connective tissue disorders, Grade 4 [1]: 0 n (%)
Musculoskeletal and connective tissue disorders, Grade 5 [1]: 0 n (%)
Musculoskeletal and connective tissue disorders, Missing or Unknown [1]: 0 n (%)
Musculoskeletal and connective tissue disorders, Total [1]: 1 (6.7) n (%)
Nausea, Grade 1 [1]: 1 (6.7) n (%)
Nausea, Grade 2 [1]: 0 n (%)
Nausea, Grade 3 [1]: 0 n (%)
Nausea, Grade 4 [1]: 0 n (%)
Nausea, Grade 5 [1]: 0 n (%)
Nausea, Missing or Unknown [1]: 0 n (%)
Nausea, Total [1]: 1 (6.7) n (%)
Nervous system disorders, Grade 1 [1]: 2 (13.3) n (%)
Nervous system disorders, Grade 2 [1]: 0 n (%)
Nervous system disorders, Grade 3 [1]: 0 n (%)
Nervous system disorders, Grade 4 [1]: 0 n (%)
Nervous system disorders, Grade 5 [1]: 0 n (%)
Nervous system disorders, Missing or Unknown [1]: 0 n (%)
Nervous system disorders, Total [1]: 2 (13.3) n (%)
Neutrophil count decreased, Grade 1 [1]: 1 (6.7) n (%)
Neutrophil count decreased, Grade 2 [1]: 0 n (%)
Neutrophil count decreased, Grade 3 [1]: 1 (6.7) n (%)
Neutrophil count decreased, Grade 4 [1]: 0 n (%)
Neutrophil count decreased, Grade 5 [1]: 0 n (%)
Neutrophil count decreased, Missing or Unknown [1]: 0 n (%)
Neutrophil count decreased, Total [1]: 2 (13.3) n (%)
Pain, Grade 1 [1]: 0 n (%)
Pain, Grade 2 [1]: 1 (6.7) n (%)
Pain, Grade 3 [1]: 0 n (%)
Pain, Grade 4 [1]: 0 n (%)
Pain, Grade 5 [1]: 0 n (%)
Pain, Missing or Unknown [1]: 0 n (%)
Pain, Total [1]: 1 (6.7) n (%)
Participants with events, Grade 1 [1]: 7 (46.7) n (%)
Participants with events, Grade 2 [1]: 2 (13.3) n (%)
Participants with events, Grade 3 [1]: 2 (13.3) n (%)
Participants with events, Grade 4 [1]: 0 n (%)
Participants with events, Grade 5 [1]: 0 n (%)
Participants with events, Missing or Unknown [1]: 0 n (%)
Participants with events, Total [1]: 11 (73.3) n (%)
Platelet count decreased, Grade 1 [1]: 1 (6.7) n (%)
Platelet count decreased, Grade 2 [1]: 0 n (%)
Platelet count decreased, Grade 3 [1]: 0 n (%)
Platelet count decreased, Grade 4 [1]: 0 n (%)
Platelet count decreased, Grade 5 [1]: 0) n (%)
Platelet count decreased, Missing or Unknown [1]: 0 n (%)
Platelet count decreased, Total [1]: 1 (6.7) n (%)
Pruritus, Grade 1 [1]: 1 (6.7) n (%)
Pruritus, Grade 2 [1]: 0 n (%)
Pruritus, Grade 3 [1]: 0 n (%)
Pruritus, Grade 4 [1]: 0) n (%)
Pruritus, Grade 5 [1]: 0 n (%)
Pruritus, Missing or Unknown [1]: 0 n (%)
Pruritus, Total [1]: 1 (6.7) n (%)
Sinus bradycardia, Grade 1 [1]: 1 (6.7) n (%)
Sinus bradycardia, Grade 2 [1]: 0 n (%)
Sinus bradycardia, Grade 3 [1]: 0 n (%)
Sinus bradycardia, Grade 4 [1]: 0 n (%)
Sinus bradycardia, Grade 5 [1]: 0 n (%)
Sinus bradycardia, Missing or Unknown [1]: 0 n (%)
Sinus bradycardia, Total [1]: 1 (6.7) n (%)
Skin and subcutaneous tissue disorders, Grade 1 [1]: 2 (13.3) n (%)
Skin and subcutaneous tissue disorders, Grade 2 [1]: 0 n (%)
Skin and subcutaneous tissue disorders, Grade 3 [1]: 0 n (%)
Skin and subcutaneous tissue disorders, Grade 4 [1]: 0 n (%)
Skin and subcutaneous tissue disorders, Grade 5 [1]: 0 n (%)
Skin and subcutaneous tissue disorders, Missing or Unknown [1]: 0 n (%)
Skin and subcutaneous tissue disorders, Total [1]: 2 (13.3) n (%)
White blood cell count decreased, Grade 1 [1]: 0 n (%)
White blood cell count decreased, Grade 2 [1]: 0 n (%)
White blood cell count decreased, Grade 3 [1]: 1 (6.7) n (%)
White blood cell count decreased, Grade 4 [1]: 0 n (%)
White blood cell count decreased, Grade 5 [1]: 0 n (%)
White blood cell count decreased, Missing or Unknown [1]: 0 n (%)
White blood cell count decreased, Total [1]: 1 (6.7) n (%)
discontinuations due to TEAE (in vivo): No discontinuations reported due to TEAE
